Assay results taken from patent publication US5478816A, “Liquid vitamin formulations containing vitamin D esters” (Bristol-Myers Squibb Company, priority 1993, dated 1995).
Where “and” joins values, the source holds several entries; their conditions need not be identical. Equal values may be shown once. Read-outs that look alike come from different tables or passages of the source.

Assay: Short-term stability of vitamin D3 and vitamin D3 palmitate in liquid vitamin formulations at 40° C. (HPLC assay)
Format: physicochemical
Details: 40° C.; for half-life: liquid vitamin formulation, first order fit of 16 weeks data, read-out: Time in Weeks for 50% Degradation (T50)
Procedure: In addition to the above, the vitamin formulation contains flavorants, stabilizer of vitamins, and about 1.0% polysorbate 80 as surfactant. As appreciated by the skilled artisan, appropriate overages of vitamins are included in order to assure meeting the label claims. The example composition contains 1.86:1 ratio by weight of glycerine to water. The pH is 5.0 which is adjusted by using an appropriate ratio of ascorbic acid to sodium ascorbate.
Vitamin D was analyzed by a HPLC assay as described by Matthew G. Sliva, et al., "Reversed-Phase Liquid Chromatographic Determination of Vitamin D in Infant Formulas and Enteral Nutritionals," J Assoc. Off. Anal. Chem., 75, 566, 1992, except that saponification conditions of 70° C. for 40 minutes were employed.
Stability of vitamins D3 and D3 palmitate were compared in various vitamin formulations containing different amounts of water and glycerin and at different pHs. The other ingredients and method of pH adjustment were as described in Example 1. The results are in Tables 2-5. Each batch number represents a different liquid vitamin formulation. The amount of glycerin varied between 650 and 850 mg/ml, depending upon the amount of water. "Vit" represents vitamin, "Desc." represents description,"Vit D3" represents vitamin D3, and "Vit D3P" or "D3 P" represents vitamin D3 palmitate. Table 1 lists the half-life (T50) values, i.e., time to degrade to 50% of the starting concentration of vitamins D3 and D3 palmitate at 40° C., These T50 values were calculated by fitting the data to first order degradation rate.

C=C1CC[C@H](O)C/C1=C/C=C1\CCC[C@]2(C)[C@@H]([C@H](C)CCCC(C)C)CC[C@@H]12 [Vitamin D3, vitamin D3]
half-life (pH 3.2, pH 3.2, 252 mg/ml water): 220 days
half-life (pH 3.2, pH 3.2, 390 mg/ml water): 73.5 days
half-life (pH 4.2, pH 4.2, 252 mg/ml water): 105 days
half-life (pH 4.2, pH 4.2, 390 mg/ml water): 44.8 days
half-life (pH 5, pH 5.0, 252 mg/ml water): 117 days
half-life (pH 5, pH 5.0, 320 mg/ml water): 86.8 days
half-life (pH 5, pH 5.0, 390 mg/ml water): 40.6 days
half-life (pH 5, pH 5.0, 435 mg/ml water): 39.9 days
half-life (pH 5.6, pH 5.6, 252 mg/ml water): 146 days
half-life (pH 5.6, pH 5.6, 390 mg/ml water): 44.1 days
Vitamin D content on storage (pH 3.2, 252 mg/ml water, age 0 weeks, Batch #1 (D3), #2 (D3 P)): 787 IU/ml and 789 IU/ml
Vitamin D content on storage (pH 3.2, 252 mg/ml water, age 1 week, Batch #1 (D3), #2 (D3 P)): 714 IU/ml and 724 IU/ml
Vitamin D content on storage (pH 3.2, 252 mg/ml water, age 2 weeks, Batch #1 (D3), #2 (D3 P)): 718 IU/ml and 691 IU/ml
Vitamin D content on storage (pH 3.2, 252 mg/ml water, age 4 weeks, Batch #1 (D3), #2 (D3 P)): 720 IU/ml and 713 IU/ml
Vitamin D content on storage (pH 3.2, 252 mg/ml water, age 6 weeks, Batch #1 (D3), #2 (D3 P)): 656 IU/ml and 628 IU/ml
Vitamin D content on storage (pH 3.2, 252 mg/ml water, age 8 weeks, Batch #1 (D3), #2 (D3 P)): 658 IU/ml and 634 IU/ml
Vitamin D content on storage (pH 3.2, 252 mg/ml water, age 12 weeks, Batch #1 (D3), #2 (D3 P)): 514 IU/ml and 586 IU/ml
Vitamin D content on storage (pH 3.2, 252 mg/ml water, age 16 weeks, Batch #1 (D3), #2 (D3 P)): 559 IU/ml and 542 IU/ml
Vitamin D content on storage (pH 3.2, 390 mg/ml water, age 0 weeks, Batch #3 (D3), #4 (D3 P)): 445 IU/ml and 447 IU/ml
Vitamin D content on storage (pH 3.2, 390 mg/ml water, age 1 week, Batch #3 (D3), #4 (D3 P)): 429 IU/ml
Vitamin D content on storage (pH 3.2, 390 mg/ml water, age 2 weeks, Batch #3 (D3), #4 (D3 P)): 392 IU/ml and 399 IU/ml
Vitamin D content on storage (pH 3.2, 390 mg/ml water, age 4 weeks, Batch #3 (D3), #4 (D3 P)): 359 IU/ml and 369 IU/ml
Vitamin D content on storage (pH 3.2, 390 mg/ml water, age 8 weeks, Batch #3 (D3), #4 (D3 P)): 282 IU/ml and 271 IU/ml
Vitamin D content on storage (pH 3.2, 390 mg/ml water, age 12 weeks, Batch #3 (D3), #4 (D3 P)): 207 IU/ml and 211 IU/ml
Vitamin D content on storage (pH 3.2, 390 mg/ml water, age 16 weeks, Batch #3 (D3), #4 (D3 P)): 160 IU/ml and 149 IU/ml
Vitamin D content on storage (pH 4.2, 252 mg/ml water, age 0 weeks, Batch #5 (D3), #6 (D3 P)): 450 IU/ml
Vitamin D content on storage (pH 4.2, 252 mg/ml water, age 1 week, Batch #5 (D3), #6 (D3 P)): 440 IU/ml and 445 IU/ml
Vitamin D content on storage (pH 4.2, 252 mg/ml water, age 2 weeks, Batch #5 (D3), #6 (D3 P)): 422 IU/ml and 425 IU/ml
Vitamin D content on storage (pH 4.2, 252 mg/ml water, age 4 weeks, Batch #5 (D3), #6 (D3 P)): 364 IU/ml and 371 IU/ml
Vitamin D content on storage (pH 4.2, 252 mg/ml water, age 8 weeks, Batch #5 (D3), #6 (D3 P)): 331 IU/ml and 315 IU/ml
Vitamin D content on storage (pH 4.2, 252 mg/ml water, age 12 weeks, Batch #5 (D3), #6 (D3 P)): 255 IU/ml and 267 IU/ml
Vitamin D content on storage (pH 4.2, 252 mg/ml water, age 16 weeks, Batch #5 (D3), #6 (D3 P)): 198 IU/ml and 224 IU/ml
Vitamin D content on storage (pH 4.2, 390 mg/ml water, age 0 weeks, Batch #7 (D3), #8 (D3 P)): 451 IU/ml and 448 IU/ml
Vitamin D content on storage (pH 4.2, 390 mg/ml water, age 1 week, Batch #7 (D3), #8 (D3 P)): 420 IU/ml and 418 IU/ml
Vitamin D content on storage (pH 4.2, 390 mg/ml water, age 2 weeks, Batch #7 (D3), #8 (D3 P)): 357 IU/ml and 360 IU/ml
Vitamin D content on storage (pH 4.2, 390 mg/ml water, age 4 weeks, Batch #7 (D3), #8 (D3 P)): 301 IU/ml and 299 IU/ml
Vitamin D content on storage (pH 4.2, 390 mg/ml water, age 8 weeks, Batch #7 (D3), #8 (D3 P)): 181 IU/ml and 178 IU/ml
Vitamin D content on storage (pH 4.2, 390 mg/ml water, age 12 weeks, Batch #7 (D3), #8 (D3 P)): 109 IU/ml and 124 IU/ml
Vitamin D content on storage (pH 4.2, 390 mg/ml water, age 16 weeks, Batch #7 (D3), #8 (D3 P)): 91.7 IU/ml and 76.1 IU/ml
Vitamin D content on storage (pH 5.0, 252 mg/ml water, age 0 weeks, Batch #9 (D3), #10 (D3 P)): 840 IU/ml and 851 IU/ml
Vitamin D content on storage (pH 5.0, 252 mg/ml water, age 1 week, Batch #9 (D3), #10 (D3 P)): 791 IU/ml and 793 IU/ml
Vitamin D content on storage (pH 5.0, 252 mg/ml water, age 4 weeks, Batch #9 (D3), #10 (D3 P)): 720 IU/ml and 700 IU/ml
Vitamin D content on storage (pH 5.0, 252 mg/ml water, age 8 weeks, Batch #9 (D3), #10 (D3 P)): 583 IU/ml and 590 IU/ml
Vitamin D content on storage (pH 5.0, 252 mg/ml water, age 12 weeks, Batch #9 (D3), #10 (D3 P)): 478 IU/ml and 482 IU/ml
Vitamin D content on storage (pH 5.0, 252 mg/ml water, age 16 weeks, Batch #9 (D3), #10 (D3 P)): 460 IU/ml and 430 IU/ml
Vitamin D content on storage (pH 5.0, 390 mg/ml water (so in the source), age 0 weeks, Batch #11 (D3), #12 (D3 P)): 454 IU/ml and 449 IU/ml
Vitamin D content on storage (pH 5.0, 390 mg/ml water (so in the source), age 1 week, Batch #11 (D3), #12 (D3 P)): 432 IU/ml and 423 IU/ml
Vitamin D content on storage (pH 5.0, 390 mg/ml water (so in the source), age 2 weeks, Batch #11 (D3), #12 (D3 P)): 424 IU/ml and 426 IU/ml
Vitamin D content on storage (pH 5.0, 390 mg/ml water (so in the source), age 4 weeks, Batch #11 (D3), #12 (D3 P)): 377 IU/ml and 371 IU/ml
Vitamin D content on storage (pH 5.0, 390 mg/ml water (so in the source), age 8 weeks, Batch #11 (D3), #12 (D3 P)): 291 IU/ml and 281 IU/ml
Vitamin D content on storage (pH 5.0, 390 mg/ml water (so in the source), age 12 weeks, Batch #11 (D3), #12 (D3 P)): 230 IU/ml and 237 IU/ml
Vitamin D content on storage (pH 5.0, 390 mg/ml water (so in the source), age 16 weeks, Batch #11 (D3), #12 (D3 P)): 196 IU/ml and 182 IU/ml
Vitamin D content on storage (pH 5.0, 390 mg/ml water, age 0 weeks, Batch #13 (D3), #14 (D3 P)): 453 IU/ml and 452 IU/ml
Vitamin D content on storage (pH 5.0, 390 mg/ml water, age 1 week, Batch #13 (D3), #14 (D3 P)): 413 IU/ml and 410 IU/ml
Vitamin D content on storage (pH 5.0, 390 mg/ml water, age 2 weeks, Batch #13 (D3), #14 (D3 P)): 363 IU/ml and 356 IU/ml
Vitamin D content on storage (pH 5.0, 390 mg/ml water, age 4 weeks, Batch #13 (D3), #14 (D3 P)): 298 IU/ml and 305 IU/ml
Vitamin D content on storage (pH 5.0, 390 mg/ml water, age 8 weeks, Batch #13 (D3), #14 (D3 P)): 166 IU/ml and 168 IU/ml
Vitamin D content on storage (pH 5.0, 435 mg/ml water, age 0 weeks, Batch #15 (D3), #16 (D3 P)): 450 IU/ml and 453 IU/ml
Vitamin D content on storage (pH 5.0, 435 mg/ml water, age 1 week, Batch #15 (D3), #16 (D3 P)): 400 IU/ml and 426 IU/ml
Vitamin D content on storage (pH 5.0, 435 mg/ml water, age 2 weeks, Batch #15 (D3), #16 (D3 P)): 370 IU/ml
Vitamin D content on storage (pH 5.0, 435 mg/ml water, age 4 weeks, Batch #15 (D3), #16 (D3 P)): 285 IU/ml and 291 IU/ml
Vitamin D content on storage (pH 5.0, 435 mg/ml water, age 8 weeks, Batch #15 (D3), #16 (D3 P)): 187 IU/ml
